Measured values as given in patent publication US7321027B2, “Small technetium-99m and rhenium labeled agents and methods for imaging tumors” (President and Fellows of Harvard College, priority 2000, dated 2008).

Tests used:
[1] = system: melanoma; conditions: 1 hour post injection; cited from earlier work
[2] = target: T1, σ2-receptors (Rattus norvegicus, UniProt Q5U3Y7); assay: σ2-Receptor binding assay; conditions: σ2 vs σ1
T1 construct: Rat liver membranes were prepared from male Sprague-Dawley rat livers as previously described; from tissue; host or cells: male Sprague-Dawley rat liver membranes
T1 sequence (Q5U3Y7 1-176): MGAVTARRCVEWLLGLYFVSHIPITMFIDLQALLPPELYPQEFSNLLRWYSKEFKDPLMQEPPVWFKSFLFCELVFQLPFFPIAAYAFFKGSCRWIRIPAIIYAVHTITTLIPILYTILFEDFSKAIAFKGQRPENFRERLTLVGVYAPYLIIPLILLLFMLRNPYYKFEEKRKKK
Description: Receptor Binding Studies. To understand the involvement of receptor binding in the melanoma-cell uptake of these ^99mTc-complexes, we further investigated the affinity of these complexes in an established σ-receptor assay.
σ2-Receptor Binding Assay. Rat liver membranes were prepared from male Sprague-Dawley rat livers as previously described (Hellewell, S. B.; Bruce A.; Feinstein, G.; Orringer, J.; Williams, W.; Bowen, W. D. Rat Liver and Kidney Contain High Densities of σ1 and σ2 Receptors: Characterization by Ligand Binding and Photoaffinity Labeling. Eur. J. Pharmacol.-Mol. Pharmacol. Sect. 1994, 268, 9-18). […] Competition assays were performed with fifteen concentrations of the nonradioactive rhenium complexes ranging from 10^−10 to 10^−3 M and protein samples (0.15 mg membrane protein) in Tris-HCl (50 mM), pH 8.0, for 120 min at 25° C. in a 0.25-mL volume. All other manipulations and data analysis were performed as described vide supra for the σ1 receptor assay.

[3] = Determination of lipophilicity and pKa values by HPLC; type: physicochemical; conditions: HPLC method
Description: The physicochemical parameters of the rhenium complexes, i.e. lipophilicity log P, log D(pH 7.4), and pKa (Table 2) were determined using HPLC methods (Braumann, T.; Grimme, L. H. Determination of Hydrophobic Parameters for Pyridazinone Herbicides by Liquid-Liquid Partition and Reversed-Phase High-Performance Liquid Chromatography. J. Chromatogr. 1981, 206, 7-15; Stytli, C.; Theobald, A. E. Determination of Ionization Constants of Radiopharmaceuticals in Mixed Solvents by HPLC. Appl. Radiat. Isot., 1987, 38, 701-708; Johannsen, B.; Scheunemann, M.; Spies, H.; Brust, P.; Wober, J.; Syhre, R.; Pietzsch, H.-J. Technetium(V) and Rhenium(V) Complexes for 5-HT2A Serotonin Receptor Binding: Structure-Affinity Considerations. Nucl. Med. Biol., 1996, 23, 429-438; and Johannsen, B.; Berger, R.; Brust, P.; Pietzsch, H.-J; Scheunemann, M.; Seifert, S.; Spies, H.; Syhre, R. Structural Modification of Receptor-Binding Technetium-99m Complexes in Order to Improve Brain Uptake. Eur. J. Nucl. Med. 1997, 24, 316-319). […] Since log D(pH 7.4) is a composite measure of log P and pKa, the log D(PH 7.4) of Re-Compound B (1.9) is also higher than that of Re-Compound A (1.1). […] With pKa values >9 for complexes Re-Compound C and Re-Compound D, the resulting low log D(PH 7.4) values of −0.5 (Re-Compound C) and 0.7 (Re-Compound D) are not surprising, since the complexes would exist in a protonated form at pH 7.4.
Determination of Lipophilicity and pKa Values. The lipophilicity and pKa values of all complexes were determined using HPLC methods described previously (Stylli, C.; Theobald, A. E. Determination of Ionization Constants of 4 Radiopharmaceuticals in Mixed Solvents by HPLC. Appl. Radiat. Isot., 1987, 38, 701-708; Johannsen, B.; Scheunemann, M.; Spies, H.; Brust, P.; Wober, J.; Syhre, R.; Pietzsch, H.-J. Technetium(V) and Rhenium(V) Complexes for 5-HT2A Serotonin Receptor Binding: Structure-Affinity Considerations. Nucl. Med. Biol., 1996, 23, 429-438; and Johannsen, B.; Berger, R.; Brust, P.; Pietzsch, H.-J.; Scheunemann, M.; Seifert, S.; Spies, H.; Syhre, R. Structural Modification of Receptor-Binding Technetium-99m Complexes in Order to Improve Brain Uptake. Eur. J. Nucl. Med. 1997, 24, 316-319). […] The mobile phase was acetonitrile:phosphate buffer (0.01 M), 3:1, v/v, with the aqueous buffer adjusted to the desired pH between 3 and 11. The capacity factor (k′) was calculated for each determination (Braumann, T.; Grimme, L. H. Determination of Hydrophobic Parameters for Pyridazinone Herbicides by Liquid-Liquid Partition and Reversed-Phase High-Performance Liquid Chromatography. J. Chromatogr. 1981, 206, 7-15; El Tayer, N.; van der Waterbeemd, H.; Testa, B. Lipophilicity Measurements of Protonated Basic Compounds by Reversed-Phase High-Performance Liquid Chromatography. II. Procedure for the Determination of a Lipophilic Index Measured by Reversed-Phase High Performance Liquid Chromatography. J. Chromatogr. 1985, 320, 305-312; and Minick, D. J.; Frenz, J. H.; Patrick, M. A.; Brent, D. A. A Comprehensive Method for Determining Hydrophobicity Constants by Reversed-Phase High-Performance Liquid Chromatography. J. Med. Chem., 1988, 31, 1923-1933) and the partition coefficient at a given pH (D or log D) were calculated from the equation: log D=a log k′+b where the parameters a and b are predetermined using standard amines. The fitted points of inflection from the sigmoidal DHPLC/pH profiles permit calculation of the pKHPLC(Stylli, C.; Theobald, A. E. Determination of Ionization Constants of Radiopharmaceuticals in Mixed Solvents by HPLC. Appl. Radiat. Isot., 1987, 38, 701-708). The aqueous ionization constants pKa were calculated from the pKHPLC values after correction with a predetermined correction factor obtained using standard amine compounds. Log P values of the neutral complexes were estimated from the respective upper plateau of the sigmoidal log D/pH curve in the alkaline range.

[4] = system: B16/F0 murine melanoma cells; assay: In-vitro tumor-cell uptake, melanoma cells; type: cell-based
Description: (§1) In-Vitro Tumor-Uptake Studies. Tumor-cell uptake studies in B16/F0 murine melanoma cells were performed with complexes Tc-(Compound A-D and H-M) at 37° C. and 4° C. Additionally, tumor-cell uptake of complex Tc-(Compound A) was investigated in another rapidly dividing MCF-7 human breast cancer cell line.
In-Vitro Cell Studies. Murine B16/F0 melanoma cells and human MCF-7 breast cancer cells were obtained from American Type Culture Collection, Manassas Va., (ATCC) and were grown in T-175 flasks in 14 mL Dulbecco's Modified Eagle Medium (D-MEM; Gibco, Life Technology, Gaithersburg, Md.) containing 4500 mg/L D-glucose, L-glutamine, and pyridoxine hydrochloride, 110 mg/L sodium pyruvate, 10% fetal bovine serum (FBS), 0.2% gentamicin and 0.5% penicillin-streptomycin solution. All cells were harvested from cell culture flasks by trypsinization with 1 mL trypsin-EDTA solution (0.25% trypsin, 1 mM EDTA×4 Na) (Gibco). After being washed with 12 mL Dulbecco's Phosphate-Buffered Saline (PBS) (Gibco), pH 7.2 (Ca^2+- and Mg^2+-free; g/L KCl, 0.20; KH2PO4, 0.20; NaCl, 8.00; Na2HPO4, 1.15), the cells were counted and resuspended in 8 mL S-MEM (Gibco) (Ca^2+ free, with reduced Mg^2+ content) and stored at 4° C. until use.
For in-vitro tumor-cell accumulation studies, 5×10^6 cells in polypropylene test tubes were incubated at 37° C. or 4° C., with intermittent agitation with 1-2 μCi (5 μL) ^99mTc-complex Tc-(Compound A-D) in a total volume of 350 μL S-MEM. At appropriate time intervals the tubes were vortexed and 8-μL samples were layered on 350 μL cold FBS in a 400-μL Eppendorf microcentrifuge tube. After centrifugation at 15,000 rpm for 2 min, the tubes were frozen in a dry ice-acetone bath. While still frozen, the bottom tip of the microcentrifuge tube containing the cell pellet was cut and placed in a counting tube. The remaining portion of the tube with the supernatant was placed in a separate counting tube. Both fractions were counted for radioactivity in a γ-counter (WALLAC, 1480 WIZARD 3″™). The amount of supernatant in the cell pellet was determined to be <1% in separate experiments. The percentage cell uptake of the ^99mTc-complex was calculated as: % uptake=[cpm(pellet)]/[cpm(pellet)+cpm(supernatant)]×100

[5] = system: MCF-7 human breast cancer cell line; assay: In-vitro tumor-cell uptake, breast cancer cells; type: cell-based; conditions: 37° C., MCF-7 cell line
Description: as §1
In-Vitro Cell Studies. […] After being washed with 12 mL Dulbecco's Phosphate-Buffered Saline (PBS) (Gibco), pH 7.2 (Ca^2+- and Mg^2+-free; g/L KCl, 0.20; KH2PO4, 0.20; NaCl, 8.00; Na2HPO4, 1.15), the cells were counted and resuspended in 8 mL S-MEM (Gibco) (Ca^2+ free, with reduced Mg^2+ content) and stored at 4° C. until use.
For in-vitro tumor-cell accumulation studies, 5×10^6 cells in polypropylene test tubes were incubated at 37° C. or 4° C., with intermittent agitation with 1-2 μCi (5 μL) ^99mTc-complex Tc-(Compound A-D) in a total volume of 350 μL S-MEM. […] Both fractions were counted for radioactivity in a γ-counter (WALLAC, 1480 WIZARD 3″™). The amount of supernatant in the cell pellet was determined to be <1% in separate experiments. The percentage cell uptake of the ^99mTc-complex was calculated as: % uptake=[cpm(pellet)]/[cpm(pellet)+cpm(supernatant)]×100

[6] = system: B16/F0 cells; assay: Tumor-cell uptake in the presence of DTG; type: cell-based, murine; conditions: DTG 90 μM, 30 min prior, 37° C.
Text: J. Labelled Compd. Radiopharm. 1994, 35, 242-244; Vilner, B. J.; John, C. S.; Bowen, W. D. Sigma-I and Sigma-2 Receptors Are Expressed in a Wide Variety of Human and Rodent Tumor Cell Lines. Cancer Res. 1995, 55, 408-413; and John, C. S.; Vilner, B. J.; Gulden, M. E.; Efange, S. M. N.; Langason, R. B.; Moody, T. W.; Bowen, W. D. Synthesis and Pharmacological Characterization of 4-[^125I]-N-(N-Benzylpiperidin-4-yl)-4-iodobenzamide: A High Affinity σ Receptor Ligand for Potential Imaging of Breast Cancer. […] Pre-incubation of the tumor cells with DTG (90 μM), 30 min prior to the uptake experiments with the ^99mTc-complexes, yields a lower tumor-cell uptake for complexes Tc-(Compound A) (29% less), Tc-(Compound C) (33% less), and Tc-(Compound D) (32% less) at 37° C. (FIG. 4). Additional dose-response experiments conducted with intact B16/F0 cells at 37° C. with Tc-(Compound C) and DTG as the inhibitor (FIG. 3) show a DTG concentration-dependent decrease in the uptake of the complex.
The effect of the inhibitor DTG on cell uptake of these complexes was studied by addition of the inhibitor at various concentrations to the cell suspension 30 min prior to addition of the ^99mTc-complexes. Fresh DTG stock solutions were made by dissolving DTG (3.0 mg, 12.5 μmol) in 0.38 mL PBS and 0.12 mL hydrochloric acid (0.1 N) and subjecting the mixture to ultrasound until a clear solution was obtained, followed by the addition of 0.50 mL FBS to produce a neutral solution at pH 7.4. The stock solutions were diluted by an appropriate amount of S-MEM, and aliquots between 5 μL and 25 μL were added to the cell suspension such that the final concentration of DTG was between 0.02 μM and 120 μM in a total cell suspension volume of 350 μL.

[7] = system: B16/F0 murine melanoma; assay: In-vivo tumor uptake and biodistribution; set-up: species or system C57B16 mice; conditions: mouse, in vivo
Description: In-Vivo Tumor Uptake. To study the tumor uptake of ^99mTc-complexes, Tc-(Compound A-D and J-K), in vivo, biodistribution experiments at 1 h and 6 h after their administration were carried out in C57B16 mice with palpable B16 melanoma nodules. The biodistribution data including melanoma/nontumor (M/NT) ratios for selected organs are summarized in Table 4 and 5 as percentage injected dose per gram ([…]).
Animal Studies. All animal experiments were performed in compliance with the Principles of Laboratory Animal Care (NIH publication #85-23, revised 1985). Biodistribution studies and tumor-uptake measurements were performed in C57B16 mice (15 to 20 g) bearing the B16/F0 murine melanoma on the hind limb. See for example the studies described in, which are hereby incorporated by reference, Brandau, W.; Niehoff, T.; Pulawski, P.; Jonas, M.; Dutschka, K.; Sciuk, J.; Coenen, H. H.; Schober, O. Structure Distribution Relationship of Iodine-123-Iodobenzamides as Tracers for the Detection of Melanotic Melanoma. J. Nucl. Med. 1996, 37, 1865-1871; Mohanmmed, A.; Nicholl, C.; Titsch, U.; Eisenhut, M. Radiojodinated N-(Alkylaminoalkyl)-Substituted 4-Methoxy-, 4-Hydroxy-, and 4-Aminobenzamides: Biological Investigations for the Improvement of Melanoma-Imaging Agents. Nucl. Med. Biol. 1997, 24, 373-380; Titsch, U.; Mohammed, A.; Wagner, S.; Oberdorfer, F.; Eisenhut, M. Syntheses of N-(2-Diethylaminoethyl)benzamides Suitable for ^99mTc Complexation. J. Labelled Compd. Radiopharm. 1997, 40, 416-418; Dittmann, H.; Coenen, H. H.; Zölzer, F.; Dutschka, K.; Brandau, W.; Streffer, C. In Vitro Studies on the Cellular Uptake of Melanoma Imaging Aminoalkyl-iodobenzamide Derivatives (ABA). Nucl. Med. Biol. 1999, 26, 51-56; and Michelot, J. M.; Moreau, M. F. C.; Veyre, A. J.; Bonafous, J. F.; Bacin, F. J.; Madelmont, J. C.; Bussiere, F.; Souteyrand, P. A.; Mauclaire, L. P.; Chossat, F. M.; Papon, J. M.; Labarre, P. G.; Kauffmann, Ph.; Plagne, R. J. Phase II Scintigraphic Clinical Trial of Malignant Melanoma and Metastases with Iodine-123-N-(2-Diethylaminoethyl 4-Iodobenzamide). J. Nucl. Med. 1993, 34, 1260-1266. The tumor cells (B16/F0), obtained from ATCC, were washed with PBS and transplanted subcutaneously on the left hind flank by an inoculation of 0.5×10^6 cells (0.1 mL). Ten to 14 days later the animals developed palpable tumor nodules 3 to 5 mm in diameter. The biodistribution studies were carried out by tail-vein injection of 25 to 30 μCi (0.05 to 0.1 mL) of the ^99mTc-labeled complexes Tc-(Compound A-D, H, J, K or M). At the designated time after tail-vein administration, the animals were weighed and sacrificed. The organs and tumors were harvested and, when appropriate, blotted dry, weighed, and counted in a gamma counter along with technetium-99m standards of the injected dose. The results are expressed as % ID/g tissue (Table 4 and 5)

## CCN(CC)CCNC(=O)c1ccc(CC2[N]3CC(C)(C)[S][Tc]34(#[N])[S]C(C)(C)C[N]4C2(C)C)cc1 (stereo not drawn) [Compound 1]
[1]
  melanoma uptake: Compound 10.4% uptake % ID/g

## CCN(CC)CCNC(=O)c1ccc(CCNC2=[SH][Tc]3(#[N])([S]2)[S]C(NCCc2ccc(C(=O)NCCN(CC)CC)cc2)=[SH]3)cc1 [Compound 4]
[1]
  melanoma uptake: Compound 40.5% uptake % ID/g

## CCN(CC)CCCN1CC[S][Re]2(=[O])[S]CC[N]2C(=O)C1 (stereo not drawn) [Re-Compound C, [ReOAADT]-C3—NEt2]
[2]
  greater affinity toward the σ2-receptor subtype: 100 fold
[3]
  pKa: 9.2
[3]; pH 7.4
  log D(pH 7.4): −0.5

## CCN(CC)CCCN1CC[S][99Tc]2(=[O])[S]CC[N]2C(=O)C1 (stereo not drawn) [Tc-(Compound C)]
[4]; 4° C. vs 37° C.
  decrease in cell uptake, incubation temperature from 37° C. to 4° C.: 77%
[4]; 37° C., B16/F0 cell line
  maximal cell uptake: 62%
[5]
  maximum cell uptake: 17%
[6]
  lower tumor-cell uptake after pre-incubation with DTG: 33%
[7]
  mel/blood ratio: 19
  mel/lung ratio: 12.7
  mel/spleen ratio: 19
